The results in this text go back to patent US20220324835A1 (Nurix Therapeutics, Inc., priority 2018, published 2022).

Experiment [1] relates to T-cell. Description: CD25 cell surface staining on T-cells co-stimulated with anti-CD3 and anti-CD28 antibody (Biological Example 2). The settings on record: Homo sapiens, T-cell, primary human total T-cells, baseline = anti-CD3/anti-CD28 stimulated cells without inhibitor, read-out: CD25 staining, Anti-CD3/Anti-CD28 stimulation, fold change over baseline; for fold induction at 0.3 µM: 0.3 μM compound; for fold induction at 1 µM: 1 μM compound; for fold induction at 4 µM: 4 μM compound. It counts as cell-based, human. An outline of the steps:
(§1)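 No assay protocol given; T-cells stimulated with anti-CD3 alone or anti-CD3 plus anti-CD28, with or without Cbl-b inhibitor. Activation read as IL-2 secretion or CD25 surface staining, expressed as fold over baseline from uninhibited cells […].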

The target of experiment [2] is Cbl-b (residues 36-427) (Homo sapiens, UniProt Q13191). As to the kind of experiment: Cbl-b binding assay (SPR, Biacore T200). As to conditions: 20° C., 1:1 binding model. An outline of the steps:
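Affinities derived from global 1:1 steady-state or kinetic fits of double-referenced, solvent-corrected SPR data, 20 °C, NeutrAvidin-capture chip. Compound series (top 100 or 50 μM, 8–10 points) injected 50 s, 90–180 s dissociation. Asterisked values used 50 mM instead of 100 mM NaCl and 30 nM Src kinase.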

Experiment [3] has as its system T-cell. As to the kind of experiment: IL-2 secretion from T-cells co-stimulated with anti-CD3 and anti-CD28 antibody (Biological Example 2). It counts as cell-based, human. The settings on record: Homo sapiens, T-cell, primary human total T-cells, baseline = anti-CD3/anti-CD28 stimulated cells without inhibitor, read-out: IL-2 secretion, Anti-CD3/Anti-CD28 stimulation, fold change over baseline; for fold induction at 0.3 µM: 0.3 μM compound; for fold induction at 1 µM: 1 μM compound; for fold induction at 4 µM: 4 μM compound. The method in brief:
as §1

In experiment [4] the target is T1, Cbl-b (Homo sapiens, UniProt Q13191). As to the kind of experiment: Cbl-b activity assay (Cbl-b inhibition assay), TR-FRET of Cbl-b interaction with UbcH5B-Ub. The settings on record: assay buffer with 100 mM NaCl, 60 nM Src kinase; read-out: Cbl-b activity IC50. It counts as biochemical. The method in brief: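 TR-FRET readout of Cbl-b binding to Bodipy-fluorescein N-terminally labeled Ub conjugated to UbcH5B C85K, measured with compound present. After compound incubation, 60 nM Src kinase with 1 mM ATP and 5 mM MgCl2 (final) was added for 1.5 h, then a further 1 h incubation; asterisked values used 50 mM NaCl buffer and 30 nM Src.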

The target of experiment [5] is T1, Cbl-b. As to the kind of experiment: Cbl-b inhibition assay (Cbl-b activity assay, FRET, Biological Example 1; 100 mM NaCl, 60 nM Src kinase). It counts as biochemical. The settings on record: upper bound stated in text lists; read-out: IC50 values in the Cbl-b inhibition assay of Biological Example 1. An outline of the steps:
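Here, the E2 UbcH5B, irreversibly linked to Bodipy-fluorescein ubiquitin, binds Cbl-b once Src kinase phosphorylates it; Cbl-b carries an N-terminal biotinylated Avi-tag captured by streptavidin-terbium. An absent FRET signal indicates inhibition.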

Where only a bound is given, the exact number is not on record here.

T1 sequence (Q13191 36-427): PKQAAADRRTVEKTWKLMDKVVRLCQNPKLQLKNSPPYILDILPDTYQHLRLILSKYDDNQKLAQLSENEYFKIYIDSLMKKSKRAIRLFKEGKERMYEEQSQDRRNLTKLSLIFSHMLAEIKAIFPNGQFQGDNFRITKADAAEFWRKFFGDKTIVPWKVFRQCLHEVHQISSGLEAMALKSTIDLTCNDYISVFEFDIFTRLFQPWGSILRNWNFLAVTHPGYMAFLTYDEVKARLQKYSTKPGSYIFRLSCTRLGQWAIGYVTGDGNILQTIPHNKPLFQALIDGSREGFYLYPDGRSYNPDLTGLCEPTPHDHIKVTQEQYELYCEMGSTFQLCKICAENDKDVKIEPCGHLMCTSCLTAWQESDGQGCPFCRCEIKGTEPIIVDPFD
Cbl-b (residues 36-427), sequence (Q13191 36-427): as above

Take `Cc1n[nH]c(C)c1-c1cc2c(c(C(F)(F)F)c1)CN(c1cccc(C3(Cc4nncn4C)COC3)c1)C2=O` [Compound 385, 6-(3,5-dimethyl-1H-pyrazol-4-yl)-2-(3-{3-[(4-methyl-4H-1,2,4-triazol-3-yl)methyl]oxetan-3-yl}phenyl)-4-(trifluoromethyl)-2,3-dihydro-1H-isoindol-1-one]: the figures for the fold induction at 0.3 µM in experiment [1] and in experiment [3] were 1.01 to 1.3 and 1.01 to 2.5, respectively. The results for the fold induction at 1 µM in experiment [1] and in experiment [3] were 1.01 to 1.3 and 2.51 to 5, respectively. The fold induction at 4 µM is 1.31 to 1.5 in experiment [1] and above 7.5 in experiment [3]. Besides, the Kd in experiment [2] is below 100 nM. Moreover, the IC50 in experiment [4] is below 100 nM; in experiment [5], at most 100 nM.
Turning to `C[C@H](Cc1nncn1C)c1cccc(N2Cc3c(cc(CN4CC(O)C4)cc3C(F)(F)F)C2=O)c1` [Compound 393, (R)-6-((3-hydroxyazetidin-1-yl)methyl)-2-(3-(1-(4-methyl-4H-1,2,4-triazol-3-yl)propan-2-yl)phenyl)-4-(trifluoromethyl)isoindolin-1-one], in experiment [1], the fold induction at 0.3 µM was 1.01 to 1.3, the fold induction at 1 µM is 1.31 to 1.5 and the fold induction at 4 µM lay within 1.31 to 1.5. The same compound registered a Kd in experiment [2] below 100 nM. Besides, in experiment [3], the fold induction at 0.3 µM lay within 2.51 to 5, the fold induction at 1 µM was above 7.5 and the fold induction at 4 µM is above 7.5. For the same compound, in experiment [4], the IC50 is below 100 nM. Besides, the IC50 in experiment [5] was at most 100 nM.
As to `C[C@H](Cc1nncn1C)c1cccc(N2Cc3c(cc(CN4CC(C)(O)C4)cc3C(F)(F)F)C2=O)c1` [Compound 397], the fold induction at 0.3 µM in experiment [1] was 1.01 to 1.3; in experiment [3], 2.51 to 5. In addition, the fold induction at 1 µM in experiment [1] is 1.31 to 1.5; in experiment [3] it was above 7.5. The fold induction at 4 µM in experiment [1] is 1.31 to 1.5; in experiment [3], above 7.5. This compound also returned a Kd in experiment [2] below 100 nM. In addition, the IC50 in experiment [4] was below 100 nM; in experiment [5], at most 100 nM.
For `C[C@H](Cc1nncn1C)c1cccc(N2Cc3c(cc(CN4CC[C@](C)(O)C4)cc3C(F)(F)F)C2=O)c1` [Compound 398, 6-(((S)-3-hydroxy-3-methylpyrrolidin-1-yl)methyl)-2-(3-((R)-1-(4-methyl-4H-1,2,4-triazol-3-yl)propan-2-yl)phenyl)-4-(trifluoromethyl)isoindolin-1-one], the fold induction at 0.3 µM in experiment [1] was 1.01 to 1.3; in experiment [3], 2.51 to 5. The fold induction at 1 µM is 1.31 to 1.5 in experiment [1] and 5 to 7.5 in experiment [3]. Further, the fold induction at 4 µM is 1.31 to 1.5 in experiment [1] and above 7.5 in experiment [3]. In experiment [2], this compound returned a Kd below 100 nM. Moreover, the IC50 was below 100 nM in experiment [4] and at most 100 nM in experiment [5].
As to `C[C@H](Cc1nncn1C)c1cccc(N2Cc3c(cc(CN4CC[C@H](F)C4)cc3C(F)(F)F)C2=O)c1` [Compound 399, 6-(((S)-3-fluoropyrrolidin-1-yl)methyl)-2-(3-((R)-1-(4-methyl-4H-1,2,4-triazol-3-yl)propan-2-yl)phenyl)-4-(trifluoromethyl)isoindolin-1-one], in experiment [1], the fold induction at 0.3 µM was 1.01 to 1.3, the fold induction at 1 µM was in the range of 1.31 to 1.5 and the fold induction at 4 µM lay within 1.31 to 1.5. In experiment [2], this compound displayed a Kd below 100 nM. Also, in experiment [3], the fold induction at 0.3 µM fell in the range of 5 to 7.5, the fold induction at 1 µM was above 7.5 and the fold induction at 4 µM was above 7.5. Further, the IC50 in experiment [4] is below 100 nM. Further, the IC50 in experiment [5] was at most 100 nM.
As for `Cn1cnnc1C(F)(F)[C@](C)(F)c1cccc(N2Cc3c(cc(C(=O)N4CC[C@H](O)C4)cc3C(F)(F)F)C2=O)c1` [Compound 438, 6-((S)-3-hydroxypyrrolidine-1-carbonyl)-2-(3-((R)-1,1,2-trifluoro-1-(4-methyl-4H-1,2,4-triazol-3-yl)propan-2-yl)phenyl)-4-(trifluoromethyl)isoindolin-1-one], in experiment [1], the fold induction at 0.3 µM was in the range of 1.01 to 1.3, the fold induction at 1 µM was in the range of 1.01 to 1.3 and the fold induction at 4 µM was 1.31 to 1.5. In addition, in experiment [2], the equilibrium dissociation constant (Kd) was in the range of 100 to 300 nM. Besides, in experiment [3], the fold induction at 0.3 µM was 1.01 to 2.5, the fold induction at 1 µM was in the range of 2.51 to 5 and the fold induction at 4 µM is above 7.5. Moreover, the IC50 in experiment [4] was below 100 nM. Further, in experiment [5], the IC50 was at most 100 nM.
In the case of `Cn1cnnc1C(F)(F)[C@](C)(F)c1cccc(N2Cc3c(cc(CN4CC[C@H](F)C4)cc3C(F)(F)F)C2=O)c1` [Compound 447, 6-(((S)-3-fluoropyrrolidin-1-yl)methyl)-2-(3-((R)-1,1,2-trifluoro-1-(4-methyl-4H-1,2,4-triazol-3-yl)propan-2-yl)phenyl)-4-(trifluoromethyl)isoindolin-1-one], in experiment [1], the fold induction at 0.3 µM was 1.31 to 1.5, the fold induction at 1 µM was 1.51 to 1.75 and the fold induction at 4 µM was 1.51 to 1.75. Besides, the Kd in experiment [2] was below 100 nM. In experiment [3], the fold induction at 0.3 µM lay in the range of 2.51 to 5, the fold induction at 1 µM was above 7.5 and the fold induction at 4 µM was above 7.5. In experiment [4], the IC50 is below 100 nM. For the same compound, the IC50 in experiment [5] is at most 100 nM.
Consider `Cn1cnnc1C(F)(F)[C@](C)(F)c1cccc(N2Cc3c(cc(CN4CCC(F)(F)C4)cc3C(F)(F)F)C2=O)c1` [Compound 448, (R)-6-((3,3-difluoropyrrolidin-1-yl)methyl)-2-(3-(1,1,2-trifluoro-1-(4-methyl-4H-1,2,4-triazol-3-yl)propan-2-yl)phenyl)-4-(trifluoromethyl)isoindolin-1-one], for which, in experiment [1], the fold induction at 0.3 µM was 1.01 to 1.3, the fold induction at 1 µM was in the range of 1.01 to 1.3 and the fold induction at 4 µM is 1.31 to 1.5. The Kd in experiment [2] was below 100 nM. Besides, in experiment [3], the fold induction at 0.3 µM was 1.01 to 2.5, the fold induction at 1 µM is 2.51 to 5 and the fold induction at 4 µM is above 7.5. The IC50 in experiment [4] is below 100 nM. The IC50 in experiment [5] was at most 100 nM.
For the compound `Cn1cnnc1C(F)(F)[C@](C)(F)c1cccc(N2Cc3c(cc(CN4CC[C@@H](F)C4)cc3C(F)(F)F)C2=O)c1` [Compound 450], the values for the fold induction at 0.3 µM in experiment [1] and in experiment [3] were 1.31 to 1.5 and 2.51 to 5, respectively. Further, the fold induction at 1 µM in experiment [1] was 1.51 to 1.75; in experiment [3] it was above 7.5. In addition, the fold induction at 4 µM in experiment [1] was 1.51 to 1.75; in experiment [3] it was above 7.5. The Kd in experiment [2] was below 100 nM. Also, the results for the IC50 in experiment [4] and in experiment [5] were below 100 nM and at most 100 nM, respectively.
Regarding `COC1CN(Cc2cc3c(c(C(F)(F)F)c2)CN(c2cccc([C@@](C)(F)C(F)(F)c4nncn4C)c2)C3=O)C1` [Compound 452, (R)-6-((3-methoxyazetidin-1-yl)methyl)-2-(3-(1,1,2-trifluoro-1-(4-methyl-4H-1,2,4-triazol-3-yl)propan-2-yl)phenyl)-4-(trifluoromethyl)isoindolin-1-one], in experiment [1], the fold induction at 0.3 µM was in the range of 1.01 to 1.3, the fold induction at 1 µM was 1.31 to 1.5 and the fold induction at 4 µM was 1.31 to 1.5. The Kd in experiment [2] is below 100 nM. Besides, in experiment [3], the fold induction at 0.3 µM fell in the range of 2.51 to 5, the fold induction at 1 µM lay in the range of 5 to 7.5 and the fold induction at 4 µM was above 7.5. In addition, in experiment [4], the IC50 is below 100 nM. The IC50 in experiment [5] is at most 100 nM.
As to `C[C@H](Cc1nncn1C)c1cccc(NC(=O)c2cc3cc(N4CCNCC4)ccc3cn2)c1` [Compound 472, N-{3-[(2R)-1-(4-methyl-4H-1,2,4-triazol-3-yl)propan-2-yl]phenyl}-6-(piperazin-1-yl)isoquinoline-3-carboxamide], in experiment [1], the fold induction at 0.3 µM lay within 1.01 to 1.3, the fold induction at 1 µM lay within 1.01 to 1.3 and the fold induction at 4 µM was 1.01 to 1.3. The compound also came in with a Kd in experiment [2] below 100 nM. Besides, in experiment [3], the fold induction at 0.3 µM was below 1, the fold induction at 1 µM fell in the range of 1.01 to 2.5 and the fold induction at 4 µM lay in the range of 2.51 to 5. Also, in experiment [4], the half-maximal inhibitory concentration (IC50) was below 100 nM. Moreover, the IC50 in experiment [5] was at most 100 nM.
